Results as given in publication PMC9699072 (Molecules, 2022).
Where “and” joins values, the source holds several entries; their conditions need not be identical. Equal values may be shown once. Where a name gives a salt, the structure may show the parent alone.

Legend:
Format in all cases: biochemical
[1] = ABTS radical cation scavenging (decolorization) assay; settings: mean ± SEM, n = 3; for IC50: 1 h, read-out: ABTS IC50 (compound concentration required for 50% reduction of the ABTS radical-cation) (converted); for ABTS TEAC (Trolox equivalent antioxidant capacity): 1 h incubation, relative to Trolox
Protocol: The ABTS assay is based on the direct quenching of the ABTS cation radical (ABTS^•+) by antioxidants. The assay is carried out by spectrophotometric determination of a decrease in absorbance of a stable dark green ABTS^•+ solution after its interaction with an antioxidant compound [56]. The measurements were performed as previously described in detail. The results are expressed as TEAC values (Trolox equivalent antioxidant capacity) and IC50 values (compound concentration required for 50% reduction of the ABTS radical).
Radical scavenging activity of the compounds was assessed using the ABTS radical cation (ABTS^•+) decolorization assay with some modifications. ABTS (2,2′-azinobis-(3-ethylbenzothiazoline-6-sulfonic acid)) was purchased from Tokyo Chemical Industry Co., Ltd. (Tokyo, Japan), and potassium persulfate (dipotassium peroxodisulfate), Trolox (6-hydroxy-2,5,7,8-tetramethylchroman-2-carboxylic acid), and HPLC-grade ethanol and DMSO were obtained from Sigma-Aldrich (Saint Louis, MO, USA). Aqueous solutions were prepared using deionized water. All test compounds were dissolved in DMSO.
The solution of cation radical ABTS^•+ was produced by incubation of an aqueous solution of 7 mM ABTS and 2.45 mM potassium persulfate solution in equal quantities for 12–16 h at room temperature in the dark. Radical scavenging capacity of the compounds was analyzed by mixing 10 μL of compound with 240 μL of ABTS^•+ working solution in ethanol (100 μM final concentration). Data were given for 1 h of incubation of compounds with ABTS^•+. The reduction in absorbance was measured spectrophotometrically at 734 nm using an xMark microplate UV/VIS microplate spectrophotometer (Bio-Rad, Hercules, CA, USA).
Ethanol blanks were run in each assay. Values were obtained from three replicates of each sample and three independent experiments.
Standard antioxidant Trolox was used as a reference compound. Antioxidant capacity as Trolox equivalent (TEAC) values was determined as the ratio between the slopes obtained from the linear correlation of the ABTS radical absorbance with the concentrations of tested compounds and Trolox. Quercetin was used as a positive control. For the test compounds that reduced ABTS^•+ absorbance by more than 60% at 100 µM, we also determined the IC50 values (the compound concentration required for a 50% reduction of the ABTS radical). The compounds were tested in the concentration range of 0.5–400 µM.

[2] = test system: porcine liver CES; assay: Inhibition of CES (4-nitrophenol acetate hydrolysis); settings: ± SEM; for IC50: n = 3; for CES % inhibition at 20 μM: n = 3, 10 min incubation 25 °C
Excerpt: Given the available literature data on the ability of pyrazole derivatives to inhibit acetylcholinesterase (AChE) and human carboxylesterase-1 (CES), we performed an investigation of the esterase profile for new compounds 1a–j and 4a–j, including an evaluation of their inhibitory effect on the standard enzymes set: human erythrocyte AChE, equine serum butyrylcholinesterase (BChE), and porcine liver CES (Table 2). The applicability of this set of enzymes was shown by us earlier.
Human erythrocyte acetylcholinesterase (AChE, EC 3.1.1.7), equine serum butyrylcholinesterase (BChE, EC 3.1.1.8), porcine liver carboxylesterase (CES, EC 3.1.1.1), acetylthiocholine iodide (ATCh), butyrylthiocholine iodide (BTCh), 4-nitrophenol acetate (4-NPA), and 5,5′-dithio-bis-(2-nitrobenzoic acid) (DTNB) were purchased from Sigma-Aldrich (Saint Louis, MO, USA).
All the kinetic experiments were performed under standard conditions, according to the protocol of IPAC RAS for a reversible inhibitors study.
Ellman’s colorimetric assay was used to measure AChE and BChE activity in 0.1 M K/Na phosphate buffer at pH 7.5, 25 °C [86]. Final concentrations of reactants were 0.33 mM DTNB, 0.02 unit/mL of AChE or BChE, and 1 mM of substrate (ATCh or BTCh, respectively). Reagent blanks consisted of reaction mixtures without enzyme to assess non-enzymatic hydrolysis of substrates. Porcine liver CES activity was assessed colorimetrically in 0.1 M K/Na phosphate buffer with pH 8.0 at 25 °C, by measuring the absorbance of 4-nitrophenol at 405 nm. Final enzyme and substrate (4-NPA) concentrations were 0.02 unit/mL and 1 mM, respectively. Reagent blanks included all constituents except enzyme.
Test compounds were dissolved in DMSO. Reaction mixtures contained a final DMSO concentration of 2% (v/v). Enzyme inhibition was first assessed at a single concentration of 20 µM for each compound after a 10 min incubation at 25 °C in three separate experiments. Compounds inhibiting the enzyme by more than 30% were then selected for determination of the IC50 (inhibitor concentration resulting in 50% inhibition of control enzyme activity). […] Substrate was then added, and residual enzyme activity relative to an inhibitor-free control was measured using a FLUOStar Optima microplate reader (LabTech, Ortenberg, Germany).

[3] = FRAP (ferric reducing antioxidant power) assay; settings: for FRAP TE (Trolox equivalent): mean ± SEM, n = 3, 1 h, 37 °C, pH 3.6
Protocol: The FRAP (ferric reducing antioxidant power) assay measures the ability of antioxidants to reduce the ferric 2,4,6-tripyridyl-s-triazine complex [Fe(TPTZ)2]^3+ to the intensely blue ferrous complex [Fe(TPTZ)2]^2+ in an acidic medium. The measurements were performed as previously described in detail. The results are expressed as TE (Trolox equivalents).
The FRAP (ferric reducing antioxidant power) assay measures the ability of antioxidants to reduce the ferric 2,4,6-tripyridyl-s-triazine complex [Fe (TPTZ)2]^3+ to the intensely blue ferrous complex [Fe (TPTZ)2]^2+ (λ = 593 nm) in acidic medium. 2,4,6-Tris(pyridin-2-yl)-1,3,5-triazine (TPTZ), FeCl3·6H2O, Trolox, quercetin and DMSO were obtained from Sigma-Aldrich Chemical Co. (St. Louis, MO, USA). The FRAP reagent contained 2.5 mL of 10 mM TPTZ solution in 40 mM HCl, 2.5 mL of 20 mM FeCl3·6H2O water solution, and 25 mL of 0.3 M acetate buffer (pH 3.6). Aliquots of 10 µL of the test compound solution in DMSO (0.5 mM) were mixed with 240 µL of FRAP reagent, and the absorbance of the mixture was measured spectrophotometrically (FLUOStar OPTIMA microplate spectrophotometer (BMG Labtech, Ortenberg, Germany)) at 600 nm after 1 h incubation at 37 °C against a blank. Trolox was used as a reference compound. Quercetin was used as a positive control. A calibration curve with linear formula y = 0.03x (R^2 = 0.998, p < 0.0001) was prepared for Trolox solutions in DMSO at a range of 2.5–100 µM, and the results are expressed as Trolox equivalents (TE), the values calculated as the ratio of the concentrations of Trolox and the test compound, resulting in the same effect.

Molecule	IC50 [1] [µM]	ABTS TEAC (Trolox equivalent antioxidant capacity) [1]	IC50 [2]	FRAP TE (Trolox equivalent) [3] [TE]	CES % inhibition at 20 μM [2] [%]	ABTS TEAC (Trolox equivalent antioxidant capacity) ([1]; listed as APH) [TEAC]	FRAP TE (Trolox equivalent) ([3]; listed as APH) [TE]	Ferric reducing activity lower than that of EDA ([3]; FRAP test, relative to EDA) [%]
Cl.Nc1c(C(F)(F)C(F)(F)C(F)(F)C(F)(F)F)n[nH]c1O.O [4i, 4-Amino-3-(nonafluorobutyl)-1H-pyrazol-5-ol hydrate hydrochloride]	40.8	0.45 ± 0.02 TEAC	22 µM and 21.8 µM	0.75 ± 0.05	–	–	–	–
Cl.Nc1c(C(F)(F)F)nn(-c2ccccc2)c1O [4a, 4-Amino-3-(trifluoromethyl)-1-phenyl-1H-pyrazol-5-ol hydrochloride]	27.2	0.75 ± 0.04 TEAC	44.9 ± 4 µM	0.89 ± 0.05	–	–	–	–
Nc1c(C(F)(F)C(F)(F)C(F)(F)C(F)(F)F)nn(-c2ccccc2)c1O [4c, 5-Hydroxy-1-phenyl-3-(nonafluorobuthyl)-1H-pyrazol-4-ammonium hydrochloride]	23.4	0.85 ± 0.04 TEAC	10 µM and 10.2 µM	0.98 ±0.05	–	–	–	–
Cl.Nc1c(C(F)(F)C(F)(F)F)n[nH]c1O.O [4g, 4-Amino-3-(pentafluoroethyl)-1H-pyrazol-5-ol hydrate hydrochloride]	25.7	0.73 ± 0.03 TEAC	–	0.88 ± 0.04	6.7 ± 1.2	–	–	–
Cl.Nc1c(C(F)(F)C(F)(F)C(F)(F)F)n[nH]c1O.O [4h, 4-Amino-3-(heptafluoropropyl)-1H-pyrazol-5-ol hydrate hydrochloride]	24.8	0.78 ± 0.04 TEAC	81.8 ± 7.3 µM	1.03 ± 0.04	–	–	–	–
Cl.Nc1c(C(F)(F)C(F)(F)F)nn(-c2ccccc2)c1O.O [4b, 4-Amino-3-(pentafluoroethyl)-1-phenyl-1H-pyrazol-5-ol hydrate hydrochloride]	34.1	0.6 ± 0.03 TEAC	–	0.75 ± 0.07	16.6 ± 1.4	–	–	–
Cl.Nc1c(C(F)(F)F)n[nH]c1O [4e, 4-Amino-3-(trifluoromethyl)-1H-pyrazol-5-ol hydrochloride]	21.2	0.92 ± 0.04 TEAC	–	1.02 ± 0.02	–	–	–	–
O=C1NN=C(C(F)(F)F)/C1=N/O [1e]	–	0.23 ± 0.01 (n.d.) TEAC	–	0.07 ± 0.01	5.9 ± 1.1	–	–	–
Cc1nn(-c2ccccc2)c(O)c1N.Cl.O [4d, 4-Amino-3-methyl-1-phenyl-1H-pyrazol-5-ol hydrochloride hydrate]	23.3	0.93 ± 0.03 TEAC	98.7 ± 8.8 µM	0.98 ± 0.08	–	0.93	0.98	–
O=C1NN=C(C(F)(F)C(F)(F)F)/C1=N/O [1g]	–	0.13 ± 0.04 (n.d.) TEAC	–	0.13 ± 0.01	7.8 ± 1.4	–	–	–
CC1=NNC(=O)/C1=N\O [1j]	–	0.2 ± 0.03 (n.d.) TEAC	–	0.09 ± 0.01	–	–	–	–
Cc1n[nH]c(O)c1N.Cl [4j, 4-Amino-3-methyl-1H-pyrazol-5-ol hydrochloride]	20.1	0.95 ± 0.04 TEAC	–	1.04 ± 0.04	4.3 ± 0.9	–	–	–
3-methyl-1-phenyl-2-pyrazolin-5-one [EDA, reference compound]	21.4	0.96 ± 0.04 TEAC	–	0.80 ± 0.01	8.4 ± 0.7	–	–	–
Oc1cc(C(F)(F)F)nn1-c1ccccc1 [CF3-EDA, 3-trifluoromethyl-1-phenylpyrazol-5-ol, reference compound]	21.4	0.95 ± 0.04 TEAC	–	0.63 ± 0.03	7.6 ± 1.2	–	–	20
